target: T1, ER (Homo sapiens, UniProt P03372); test: ER degradation activity, in-cell western blot analysis in T47D cells; assay type: cell-based; details: 16 hours, Table A does not say which cell line (T47D or MCF7), read-out: Potency (DC50)
T1 construct: host or cells: T47D and MCF7 human breast cancer cells
T1 sequence (P03372 1-595): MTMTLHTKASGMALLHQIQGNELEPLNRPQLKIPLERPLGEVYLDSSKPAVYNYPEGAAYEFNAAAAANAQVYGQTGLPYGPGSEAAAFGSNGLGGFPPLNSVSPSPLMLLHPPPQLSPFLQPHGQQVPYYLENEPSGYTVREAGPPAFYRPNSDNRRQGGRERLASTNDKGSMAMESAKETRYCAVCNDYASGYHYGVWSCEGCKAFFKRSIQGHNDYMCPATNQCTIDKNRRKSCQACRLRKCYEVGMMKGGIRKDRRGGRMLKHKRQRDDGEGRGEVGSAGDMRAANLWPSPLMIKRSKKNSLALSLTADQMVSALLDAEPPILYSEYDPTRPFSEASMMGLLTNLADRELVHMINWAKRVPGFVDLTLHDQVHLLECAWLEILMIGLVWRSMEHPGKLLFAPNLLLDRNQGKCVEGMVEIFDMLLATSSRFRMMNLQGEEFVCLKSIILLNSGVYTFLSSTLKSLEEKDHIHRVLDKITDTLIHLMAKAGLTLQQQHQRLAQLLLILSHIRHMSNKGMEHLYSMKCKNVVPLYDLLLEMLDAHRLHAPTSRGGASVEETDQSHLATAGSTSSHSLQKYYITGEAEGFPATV
Summary of the method: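 Read-out is near-infrared fluorescence from an in-cell western, expressed as ER percentage relative to untreated and DMSO controls taken as 100%. T47D breast cancer cells received compound for 16 h in 0.5% DMSO.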

| Compound | DC50 |
| --- | --- |
| C[C@@H]1Cc2c([nH]c3ccccc23)[C@@H](c2ccc(N3CCC4(CCN(CC(=O)N5Cc6cc7c(cc6C5)C(=O)N(C5CCC(=O)NC5=O)C7=O)CC4)CC3)cn2)N1CC(F)F (stereo partly drawn) [E 292, 6-(2-(9-(6-((1S,3R)-2-(2,2-difluoroethyl)-3-methyl-2,3,4,9-tetrahydro-1H-pyrido[3,4-b]indol-1-yl)pyridin-3-yl)-3,9-diazaspiro[5.5]undecan-3-yl)acetyl)-2-(2,6-dioxopiperidin-3-yl)-6,7-dihydropyrrolo[3,4-f]isoindole-1,3(2H,5H)-dione] | > 0.1 µM |
| O=C1CCC(N2C(=O)c3cc4c(cc3C2=O)CN(Cc2cnc(N3CC(Oc5ccc([C@@H]6c7ccc(O)cc7CC[C@@H]6c6ccccc6)cc5)C3)cn2)C4)C(=O)N1 (stereo partly drawn) [E 342, 2-(2,6-dioxopiperidin-3-yl)-6-((5-(3-(4-((1R,2S)-6-hydroxy-2-phenyl-1,2,3,4-tetrahydronaphthalen-1-yl)phenoxy)azetidin-1-yl)pyrazin-2-yl)methyl)-6,7-dihydropyrrolo[3,4-f]isoindole-1,3(2H,5H)-dione] | > 0.1 µM |
| C[C@@H]1Cc2c([nH]c3ccccc23)[C@@H](c2c(F)cc(N3CCC4(CCN(CC5Cc6cc7c(cc6C5)C(=O)N(C5CCC(=O)NC5=O)C7=O)CC4)CC3)cc2F)N1CC(F)(F)F (stereo partly drawn) [E 231, 6-((9-(3,5-difluoro-4-((1R,3R)-3-methyl-2-(2,2,2-trifluoroethyl)-2,3,4,9-tetrahydro-1H-pyrido[3,4-b]indol-1-yl)phenyl)-3,9-diazaspiro[5.5]undecan-3-yl)methyl)-2-(2,6-dioxopiperidin-3-yl)-6,7-dihydrocyclopenta[f]isoindole-1,3(2H,5H)-dione] | > 0.1 µM |
| O=C1CCC(N2C(=O)c3cc4c(cc3C2=O)CN(CCC(=O)NC2CCN(c3ccc([C@@H]5c6ccc(O)cc6CC[C@@H]5c5ccccc5)cc3)CC2)C4)C(=O)N1 (stereo partly drawn) [E332, 3-(6-(2,6-dioxopiperidin-3-yl)-5,7-dioxo-3,5,6,7-tetrahydropyrrolo[3,4-f]isoindol-2(1H)-yl)-N-(1-(4-((1R,2S)-6-hydroxy-2-phenyl-1,2,3,4-tetrahydronaphthalen-1-yl)phenyl)piperidin-4-yl)propanamide] | > 0.1 µM |
| C[C@@H]1Cc2cc(O)ccc2[C@@H](c2c(F)cc(N3CC4(CCN(CC(=O)N5Cc6cc7c(cc6C5)C(=O)N(C5CCC(=O)NC5=O)C7)CC4)C3)cc2F)N1CC(C)(F)F (stereo partly drawn) [E 26, 3-(6-(2-(2-(4-((1S,3R)-2-(2,2-difluoropropyl)-6-hydroxy-3-methyl-1,2,3,4-tetrahydroisoquinolin-1-yl)-3,5-difluorophenyl)-2,7-diazaspiro[3.5]nonan-7-yl)acetyl)-1-oxo-3,5,6,7-tetrahydropyrrolo[3,4-f]isoindol-2(1H)-yl)piperidine-2,6-dione] | > 0.1 µM |
| C[C@@H]1Cc2c([nH]c3ccccc23)[C@@H](c2c(F)cc(C(=O)N3CCC4(CCC(CN5Cc6cc7c(cc6C5)C(=O)N(C5CCC(=O)NC5=O)C7=O)CC4)CC3)cc2F)N1CC(F)F (stereo partly drawn) [E 378, 6-((3-(4-((1R,3R)-2-(2,2-difluoroethyl)-3-methyl-2,3,4,9-tetrahydro-1H-pyrido[3,4-b]indol-1-yl)-3,5-difluorobenzoyl)-3-azaspiro[5.5]undecan-9-yl)methyl)-2-(2,6-dioxopiperidin-3-yl)-6,7-dihydropyrrolo[3,4-f]isoindole-1,3(2H,5H)-dione] | > 0.1 µM |
| C[C@@H]1Cc2c([nH]c3ccccc23)[C@@H](c2c(F)cc(N3CC(F)(C(=O)N4CCC(F)(CN5Cc6cc7c(cc6C5)C(=O)N(C5CCC(=O)NC5=O)C7=O)CC4)C3)cc2F)N1CC(F)F (stereo partly drawn) [E 210, 6-((1-(1-(4-((1R,3R)-2-(2,2-difluoroethyl)-3-methyl-2,3,4,9-tetrahydro-1H-pyrido[3,4-b]indol-1-yl)-3,5-difluorophenyl)-3-fluoroazetidine-3-carbonyl)-4-fluoropiperidin-4-yl)methyl)-2-(2,6-dioxopiperidin-3-yl)-6,7-dihydropyrrolo[3,4-f]isoindole-1,3(2H,5H)-dione] | > 0.1 µM |

Next, values leading:

| DC50 | Compound |
| --- | --- |
| > 0.1 µM | O=C1CCC(N2C(=O)c3cc4c(cc3C2=O)CN(C2CN(CC3CCN(c5ccc([C@@H]6c7ccc(O)cc7CC[C@@H]6c6ccccc6)cc5)CC3)C2)C4)C(=O)N1 (stereo partly drawn) [E 272, 2-(2,6-dioxopiperidin-3-yl)-6-(1-((1-(4-((1R,2S)-6-hydroxy-2-phenyl-1,2,3,4-tetrahydronaphthalen-1-yl)phenyl)piperidin-4-yl)methyl)azetidin-3-yl)-6,7-dihydropyrrolo[3,4-f]isoindole-1,3(2H,5H)-dione] |
| > 0.1 µM | C[C@@H]1Cc2c([nH]c3ccccc23)[C@@H](c2c(F)cc(N3CC4(CCN4CC(=O)N4Cc5cc6c(cc5C4)C(=O)N(C4CCC(=O)NC4=O)C6=O)C3)cc2F)N1CC(F)F (stereo partly drawn) [E 60, 6-(2-(6-(4-((1R,3R)-2-(2,2-difluoroethyl)-3-methyl-2,3,4,9-tetrahydro-1H-pyrido[3,4-b]indol-1-yl)-3,5-difluorophenyl)-1,6-diazaspiro[3.3]heptan-1-yl)acetyl)-2-(2,6-dioxopiperidin-3-yl)-6,7-dihydropyrrolo[3,4-f]isoindole-1,3(2H,5H)-dione] |
| > 0.1 µM | C[C@@H]1CC2(CCN(c3ccc([C@@H]4c5ccc(O)cc5CC[C@@H]4c4ccc(F)cc4)cc3)CC2)CN1CC(=O)N1Cc2cc3c(cc2C1)C(=O)N(C1CCC(=O)NC1=O)C3=O (mixture of isomers) [E 146, Rac-2-(2,6-dioxopiperidin-3-yl)-6-(2-((R)-8-(4-((1R,2S)-2-(4-fluorophenyl)-6-hydroxy-1,2,3,4-tetrahydronaphthalen-1-yl)phenyl)-3-methyl-2,8-diazaspiro[4.5]decan-2-yl)acetyl)-6,7-dihydropyrrolo[3,4-f]isoindole-1,3(2H,5H)-dione] |
| 0.01 to 0.1 µM | C[C@@H]1Cc2c([nH]c3ccccc23)[C@@H](c2c(F)cc(N3CCC(C(=O)N4CC(CN5Cc6cc7c(cc6C5)C(=O)N(C5CCC(=O)NC5=O)C7=O)C4)CC3)cc2F)N1CC(F)F (stereo partly drawn) [E 234, 6-((1-(1-(4-((1R,3R)-2-(2,2-difluoroethyl)-3-methyl-2,3,4,9-tetrahydro-1H-pyrido[3,4-b]indol-1-yl)-3,5-difluorophenyl)piperidine-4-carbonyl)azetidin-3-yl)methyl)-2-(2,6-dioxopiperidin-3-yl)-6,7-dihydropyrrolo[3,4-f]isoindole-1,3(2H,5H)-dione] |
| < 0.01 µM | C[C@@H]1Cc2c([nH]c3ccccc23)[C@@H](c2c(F)cc(N3CCC(CN4CCC(C(=O)N5Cc6cc7c(cc6C5)C(=O)N(C5CCC(=O)NC5=O)C7=O)CC4)C3)cc2F)N1CC(F)F (stereo partly drawn) [E 57, 6-(1-((1-(4-((1R,3R)-2-(2,2-difluoroethyl)-3-methyl-2,3,4,9-tetrahydro-1H-pyrido[3,4-b]indol-1-yl)-3,5-difluorophenyl)pyrrolidin-3-yl)methyl)piperidine-4-carbonyl)-2-(2,6-dioxopiperidin-3-yl)-6,7-dihydropyrrolo[3,4-f]isoindole-1,3(2H,5H)-dione] |
| < 0.01 µM | C[C@@H]1Cc2c([nH]c3ccccc23)[C@@H](c2ccc(N3CCC(C(=O)N4CCC(N5Cc6cc7c(cc6C5)C(=O)N(C5CCC(=O)NC5=O)C7=O)CC4)CC3)cc2F)N1CC(F)F (stereo partly drawn) [E 302, 6-(1-(1-(4-((1R,3R)-2-(2,2-difluoroethyl)-3-methyl-2,3,4,9-tetrahydro-1H-pyrido[3,4-b]indol-1-yl)-3-fluorophenyl)piperidine-4-carbonyl)piperidin-4-yl)-2-(2,6-dioxopiperidin-3-yl)-6,7-dihydropyrrolo[3,4-f]isoindole-1,3(2H,5H)-dione] |

same assay, conditions: compounds 16 hours, Table A does not say whether T47D or MCF7, read-out: Potency (DC50)

| Compound | DC50 |
| --- | --- |
| COc1c2c(cc3c1CN(C1CCC(=O)NC1=O)C3=O)CN(CC(=O)N1CC3(CCN(c4cc(F)c([C@@H]5c6ccc7[nH]ncc7c6C[C@@H](C)N5CC(F)F)c(F)c4)CC3)C1)C2 (stereo partly shown) [E 441] | < 0.01 µM |
| C[C@@H]1Cc2cc(O)ccc2[C@@H](c2c(F)cc(N(C)C3CC4(CCN(C(=O)CN5Cc6cc7c(cc6C5)C(=O)N(C5CCC(=O)NC5=O)C7=O)CC4)C3)cc2F)N1CC(F)F (stereo partly drawn) [E 452, 6-(2-(2-((4-((1S,3R)-2-(2,2-difluoroethyl)-6-hydroxy-3-methyl-1,2,3,4-tetrahydroisoquinolin-1-yl)-3,5-difluorophenyl)(methyl)amino)-7-azaspiro[3.5]nonan-7-yl)-2-oxoethyl)-2-(2,6-dioxopiperidin-3-yl)-6,7-dihydropyrrolo[3,4-f]isoindole-1,3(2H,5H)-dione] | 0.01 to 0.1 µM |
| C[C@@H]1Cc2cc(O)ccc2[C@@H](c2c(F)cc(C(=O)N3CC4(CCN(C(=O)CN5Cc6cc7c(cc6C5)C(=O)N(C5CCC(=O)NC5=O)C7=O)CC4)C3)cc2F)N1CC(F)F (stereo partly drawn) [E 457, 6-(2-(2-(4-((1S,3R)-2-(2,2-difluoroethyl)-6-hydroxy-3-methyl-1,2,3,4-tetrahydroisoquinolin-1-yl)-3,5-difluorobenzoyl)-2,7-diazaspiro[3.5]nonan-7-yl)-2-oxoethyl)-2-(2,6-dioxopiperidin-3-yl)-6,7-dihydropyrrolo[3,4-f]isoindole-1,3(2H,5H)-dione] | 0.01 to 0.1 µM |

Source: patent US20240190880A1 (THE REGENTS OF THE UNIVERSITY OF MICHIGAN, priority 2021, published 2024)
